From PubChem BioAssay AID328 (DTP/NCI, 2004)
Values joined by “and” are separate entries in the source; they are usually repeats but may differ in a detail not shown here. Equal entries are not always repeated. Toxic doses and inconclusive results are not listed.

System: BDF1 mice, P388 leukemia ip, median survival T/C
Test: NCI In Vivo Anticancer Drug Screen. Data for tumor model P388 Leukemia (intraperitoneal) in B6D2F1 (BDF1) mice
Conditions: endpoint: median survival time, higher = longer survival
Procedure, shortened: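 Reported as T/C, where T is the survival measurement in dosed animals and C the same measurement in vehicle controls.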

[1] = dose: 50.0 mg/kg/injection, schedule: Q01DX009 (ip), vehicle: saline with Tween-80
[2] = dose: 100.0 mg/kg/injection, schedule: Q01DX009 (ip), vehicle: saline with Tween-80
[3] = dose: 200.0 mg/kg/injection, schedule: Q01DX009 (ip), vehicle: saline with Tween-80

With `Cn1cc(/C=C/C(N)=O)c2nccnc21` the T/C (dose: 1.56 mg/kg/injection, schedule: Q01DX009 (ip), vehicle: water) was 114 % of control, the T/C (dose: 3.12 mg/kg/injection, schedule: Q01DX009 (ip), vehicle: water) was 100 % of control and the T/C (dose: 3.12 mg/kg/injection, schedule: Q04DX003 (ip), vehicle: water) was 115 % of control. The T/C (dose: 6.25 mg/kg/injection, schedule: Q01DX009 (ip), vehicle: water) was 95 % of control, the T/C (dose: 6.25 mg/kg/injection, schedule: Q04DX003 (ip), vehicle: water) was 106 % of control and the T/C (dose: 12.5 mg/kg/injection, schedule: Q01DX009 (ip), vehicle: water) was 96 % of control. For the same molecule, the T/C (dose: 12.5 mg/kg/injection, schedule: Q04DX003 (ip), vehicle: water) was 98 % of control, the T/C (dose: 25.0 mg/kg/injection, schedule: Q01DX009 (ip), vehicle: water) was 100 % of control and 102 % of control and the T/C (dose: 25.0 mg/kg/injection, schedule: Q04DX003 (ip), vehicle: water) was 98 % of control. The T/C (dose: 50.0 mg/kg/injection, schedule: Q01DX009 (ip), vehicle: water) was 86 % of control and the T/C (dose: 50.0 mg/kg/injection, schedule: Q04DX003 (ip), vehicle: water) was 102 % of control.

`CCOC(=O)C1(C(=O)O)CC2C(C)C=CC(C)C2C1` (configuration not stated) was tested, and the T/C (dose: 100.0 mg/kg/injection, schedule: Q01DX009 (ip), vehicle: Klucel (hydroxypropylcellulose) (HPC)) was 95 % of control, the T/C (dose: 200.0 mg/kg/injection, schedule: Q01DX009 (ip), vehicle: Klucel (hydroxypropylcellulose) (HPC)) was 110 % of control and the T/C (dose: 400.0 mg/kg/injection, schedule: Q01DX009 (ip), vehicle: Klucel (hydroxypropylcellulose) (HPC)) was 100 % of control.

With `O=C(CBr)c1ccc(F)cc1` the T/C (dose: 0.78 mg/kg/injection, schedule: Q01DX009 (ip), vehicle: Klucel (hydroxypropylcellulose) (HPC)) was 110 % of control, the T/C (dose: 1.56 mg/kg/injection, schedule: Q01DX009 (ip), vehicle: Klucel (hydroxypropylcellulose) (HPC)) was 110 % of control and the T/C (dose: 3.12 mg/kg/injection, schedule: Q01DX009 (ip), vehicle: Klucel (hydroxypropylcellulose) (HPC)) was 112 % of control. The T/C (dose: 6.25 mg/kg/injection, schedule: Q01DX009 (ip), vehicle: Klucel (hydroxypropylcellulose) (HPC)) was 118 % of control.

`C/C(=N\N(C)C(=S)Nc1ccccc1)c1ccccn1` was tested, and the T/C [1] was 95 % of control, the T/C [2] was 106 % of control and the T/C [3] was 98 % of control.

With `CCN(CC)C(=O)Cn1cc(F)c(NC(C)=O)nc1=O` the T/C [2] was 90 % of control, the T/C (dose: 100.0 mg/kg/injection, schedule: Q04DX003 (ip), vehicle: saline) was 95 % of control and the T/C [3] was 105 % of control. For the same molecule, the T/C (dose: 200.0 mg/kg/injection, schedule: Q04DX003 (ip), vehicle: saline) was 109 % of control, the T/C (dose: 400.0 mg/kg/injection, schedule: Q01DX009 (ip), vehicle: saline with Tween-80) was 110 % of control and the T/C (dose: 400.0 mg/kg/injection, schedule: Q04DX003 (ip), vehicle: saline) was 113 % of control.

`Oc1ccccc1OB(Oc1ccccc1O)N(CCCl)CCCl` was tested, and the T/C (dose: 8.1 mg/kg/injection, schedule: Q01DX009 (ip), vehicle: Klucel (hydroxypropylcellulose) (HPC)) was 122 % of control, the T/C (dose: 16.5 mg/kg/injection, schedule: Q04DX003 (ip), vehicle: saline) was 86 % of control and the T/C (dose: 18.5 mg/kg/injection, schedule: Q01DX009 (ip), vehicle: Klucel (hydroxypropylcellulose) (HPC)) was 170 % of control. For the same molecule, the T/C (dose: 24.75 mg/kg/injection, schedule: Q04DX003 (ip), vehicle: saline) was 150 % of control, the T/C (dose: 28.12 mg/kg/injection, schedule: Q01DX009 (ip), vehicle: Klucel (hydroxypropylcellulose) (HPC)) was 190 % of control and 195 % of control and the T/C (dose: 40.0 mg/kg/injection, schedule: Q01DX009 (ip), vehicle: Klucel (hydroxypropylcellulose) (HPC)) was 165 % of control. The T/C (dose: 49.5 mg/kg/injection, schedule: Q04DX003 (ip), vehicle: saline) was 150 % of control and the T/C (dose: 50.0 mg/kg/injection, schedule: Q04DX003 (ip), vehicle: saline) was 119 % of control.

`OC1OC2COC(c3ccccc3)OC2C(O)C1O` (configuration not stated) was tested, and the T/C (dose: 75.0 mg/kg/injection, schedule: Q01DX009 (ip), vehicle: saline with Tween-80) was 107 % of control, the T/C (dose: 150.0 mg/kg/injection, schedule: Q01DX009 (ip), vehicle: saline with Tween-80) was 94 % of control and the T/C (dose: 300.0 mg/kg/injection, schedule: Q01DX009 (ip), vehicle: saline with Tween-80) was 91 % of control.

For `CC(C)(C)CSc1ccccc1SCC(C)(C)C`, the T/C (dose: 50.0 mg/kg/injection, schedule: Q04DX002 (ip), vehicle: saline with Tween-80) was 107 % of control, the T/C (dose: 100.0 mg/kg/injection, schedule: Q04DX002 (ip), vehicle: saline with Tween-80) was 98 % of control and the T/C (dose: 200.0 mg/kg/injection, schedule: Q04DX002 (ip), vehicle: saline with Tween-80) was 93 % of control.

In the case of `CC(C)=CCCC(C)C/C=N\O` (configuration not stated), the T/C (dose: 12.5 mg/kg/injection, schedule: Q01DX009 (ip), vehicle: saline with Tween-80) is reported as 107 % of control, the T/C (dose: 25.0 mg/kg/injection, schedule: Q01DX009 (ip), vehicle: saline with Tween-80) is reported as 107 % of control and the T/C [1] is reported as 96 % of control. The T/C (dose: 100.0 mg/kg/injection, schedule: Q04DX003 (ip), vehicle: saline with Tween-80) was 109 % of control, the T/C (dose: 200.0 mg/kg/injection, schedule: Q04DX003 (ip), vehicle: saline with Tween-80) was 113 % of control and the T/C (dose: 400.0 mg/kg/injection, schedule: Q04DX003 (ip), vehicle: saline with Tween-80) was 109 % of control.
